Numbered stars: 1 amine (or outer) side, 2 acyl side, 3 side chain; on linkers, the order of the positions; unused ones are H or OH. Square brackets hold non-standard residues; d marks the D form. Peptide text beside a SMILES is read from it. * marks the point of attachment. DOTA(Lu)NH(CH2)6NHCOCH2 = O=C(CN1CCN2CCN3CCN(CC1)CC(=O)[O][Lu]([O]C(=O)C2)[O]C(=O)C3)NCCCCCCNC(=O)C*; X6 = O=C(CN1CCN2CCN3CCN(CC1)CC(=O)[O][Lu]([O]C(=O)C2)[O]C(=O)C3)NCCOCCOCCOCCNC(=O)C*; Ala(piperidin-4-yl) = O=C([C@H](CC1CCN([*:3])CC1)N[*:1])[*:2]; dTrp(βS-Me) = C[C@@H](c1c[nH]c2ccccc12)[C@@H](N)C(=O)O; Gly(piperidin-4-yl) = N[C@H](C(=O)O)C1CCNCC1; dNMeW = CN[C@H](Cc1c[nH]c2ccccc12)C(=O)O; X25 = O=C([C@H](CC1CNC1)N[*:1])[*:2]; Gly(cPent) = N[C@H](C(=O)O)C1CCCC1; 4Pal = N[C@@H](Cc1ccncc1)C(=O)O; Gly(cPr) = N[C@H](C(=O)O)C1CC1; NMehCys = CN[C@@H](CCS)C(=O)O; Cba = N[C@@H](CC1CCC1)C(=O)O; Phg = N[C@H](C(=O)O)c1ccccc1
What follows are compounds tested against SSTR2 (Homo sapiens, UniProt P30874) (assay: SSTR binding affinity by radioligand binding competition assay ([125I]-Tyr11-Somatostatin, membrane extracts)). Settings: radioligand competition, [125I]-Tyr11-Somatostatin 0.1 nM, membrane extracts; Ki from IC50 by Cheng Prusoff; read-out: SSTR2 Ki.
SSTR2, sequence (P30874 whole entry): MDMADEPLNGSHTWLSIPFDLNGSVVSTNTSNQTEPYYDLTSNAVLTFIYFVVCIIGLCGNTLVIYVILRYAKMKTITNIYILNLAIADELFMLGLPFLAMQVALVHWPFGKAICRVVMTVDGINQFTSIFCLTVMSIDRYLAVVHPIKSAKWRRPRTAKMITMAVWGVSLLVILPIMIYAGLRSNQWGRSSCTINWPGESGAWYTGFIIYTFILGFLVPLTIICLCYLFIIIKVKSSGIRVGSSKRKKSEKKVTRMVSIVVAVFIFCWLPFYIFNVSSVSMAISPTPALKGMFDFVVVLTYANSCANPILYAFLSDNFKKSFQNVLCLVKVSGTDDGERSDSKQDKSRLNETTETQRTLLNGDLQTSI
`CO[C@H](C)[C@@H]1NC(=O)[C@H](CCCCN)NC(=O)[C@@H](Cc2c[nH]c3ccccc23)NC(=O)[C@H](Cc2ccc(O)cc2)NC(=O)[C@H](CCSCC(=O)NCCCCCCNC(=O)CN2CCN3CCN4CCN(CC2)CC(=O)[O][Lu]([O]C(=O)C3)[O]C(=O)C4)N(C)C(=O)[C@H](Cc2ccccc2)NC1=O` [RB-0004619] gave a Ki of under 1 nM. Compound `CN1C(=O)[C@H](Cc2ccccc2)NC(=O)[C@H](CC2CCC2)NC(=O)[C@H](CCCCN)NC(=O)[C@@H](Cc2c[nH]c3ccccc23)NC(=O)[C@H](Cc2ccc(O)cc2)NC(=O)[C@@H]1CCSCC(=O)NCCCCCCNC(=O)CN1CCN2CCN3CCN(CC1)CC(=O)[O][Lu]([O]C(=O)C2)[O]C(=O)C3` [RB-0004621] (cyclo([Cba]F[NMehCys](DOTA(Lu)NH(CH2)6NHCOCH2)Y[dW]K)) has a Ki of under 1 nM. `CN1C(=O)[C@H](Cc2ccccc2)NC(=O)[C@H](C2CCCC2)NC(=O)[C@H](CCCCN)NC(=O)[C@@H](Cc2c[nH]c3ccccc23)NC(=O)[C@H](Cc2ccc(O)cc2)NC(=O)[C@@H]1CCSCC(=O)NCCCCCCNC(=O)CN1CCN2CCN3CCN(CC1)CC(=O)[O][Lu]([O]C(=O)C2)[O]C(=O)C3` [RB-0004623] (cyclo(F[NMehCys](DOTA(Lu)NH(CH2)6NHCOCH2)Y[dW]K[Gly(cPent)])) gave a Ki of under 1 nM. With `C[C@@H](O)[C@@H]1NC(=O)[C@H](CCCCN)NC(=O)[C@@H](Cc2c[nH]c3ccccc23)NC(=O)[C@H](Cc2ccc(O)cc2)NC(=O)[C@H](CCSCC(=O)NCCCCCCNC(=O)CN2CCN3CCN4CCN(CC2)CC(=O)[O][Lu]([O]C(=O)C3)[O]C(=O)C4)N(C)C(=O)CNC1=O` [RB-0004819] (cyclo(G[NMehCys](DOTA(Lu)NH(CH2)6NHCOCH2)Y[dW]KT)) the Ki was under 1 nM. `C[C@@H](O)[C@@H]1NC(=O)[C@H](CCCCN)NC(=O)[C@@H](Cc2c[nH]c3ccccc23)NC(=O)[C@H](Cc2ccc(O)cc2)NC(=O)[C@H](CCSCC(=O)NCCCCCCNC(=O)CN2CCN3CCN4CCN(CC2)CC(=O)[O][Lu]([O]C(=O)C3)[O]C(=O)C4)N(C)C(=O)[C@H](c2ccccc2)NC1=O` [RB-0004821] (cyclo(KT[Phg][NMehCys](DOTA(Lu)NH(CH2)6NHCOCH2)Y[dW])) showed a Ki of 1 to 3.33 nM. Compound `CC(C)[C@@H]1NC(=O)[C@H](CCCCN)NC(=O)[C@@H](Cc2c[nH]c3ccccc23)NC(=O)[C@H](Cc2ccc(O)cc2)NC(=O)[C@H](CCSCC(=O)NCCOCCOCCOCCNC(=O)CN2CCN3CCN4CCN(CC2)CC(=O)[O][Lu]([O]C(=O)C3)[O]C(=O)C4)N(C)C(=O)[C@H](Cc2ccccc2)NC1=O` [RB-0004823] (cyclo(F[NMehCys](X6)Y[dW]KV)) has a Ki of under 1 nM. `CC(C)[C@@H]1NC(=O)[C@H](CCCCN)NC(=O)[C@@H]([C@@H](C)c2c[nH]c3ccccc23)NC(=O)[C@H](Cc2ccncc2)NC(=O)[C@H](CCSCC(=O)NCCCCCCNC(=O)CN2CCN3CCN4CCN(CC2)CC(=O)[O][Lu]([O]C(=O)C3)[O]C(=O)C4)N(C)C(=O)[C@H](Cc2ccccc2)NC1=O` [RB-0004825] (cyclo([4Pal][dTrp(βS-Me)]KVF[NMehCys](DOTA(Lu)NH(CH2)6NHCOCH2))) was tested, and the Ki was under 1 nM. `C[C@@H](O)[C@@H]1NC(=O)[C@H](CC2CCNCC2)NC(=O)[C@@H](Cc2c[nH]c3ccccc23)NC(=O)[C@H](Cc2ccc(O)cc2)NC(=O)[C@H](CCSCC(=O)NCCCCCCNC(=O)CN2CCN3CCN4CCN(CC2)CC(=O)[O][Lu]([O]C(=O)C3)[O]C(=O)C4)N(C)C(=O)[C@H](Cc2ccccc2)NC1=O` [RB-0004864] (cyclo(F[NMehCys](DOTA(Lu)NH(CH2)6NHCOCH2)Y[dW][Ala(piperidin-4-yl)]T)) showed a Ki of 1 to 3.33 nM. In the case of `C[C@@H](O)[C@@H]1NC(=O)[C@H](CC2CNC2)NC(=O)[C@@H](Cc2c[nH]c3ccccc23)NC(=O)[C@H](Cc2ccc(O)cc2)NC(=O)[C@H](CCSCC(=O)NCCCCCCNC(=O)CN2CCN3CCN4CCN(CC2)CC(=O)[O][Lu]([O]C(=O)C3)[O]C(=O)C4)N(C)C(=O)[C@H](Cc2ccccc2)NC1=O` [RB-0004866] (cyclo(F[NMehCys](DOTA(Lu)NH(CH2)6NHCOCH2)Y[dW][X25]T)), the Ki is reported as 10 to 33.3 nM. `C[C@@H](O)[C@@H]1NC(=O)[C@H](C2CCNCC2)NC(=O)[C@@H](Cc2c[nH]c3ccccc23)NC(=O)[C@H](Cc2ccc(O)cc2)NC(=O)[C@H](CCSCC(=O)NCCCCCCNC(=O)CN2CCN3CCN4CCN(CC2)CC(=O)[O][Lu]([O]C(=O)C3)[O]C(=O)C4)N(C)C(=O)[C@H](Cc2ccccc2)NC1=O` [RB-0004868] (cyclo(F[NMehCys](DOTA(Lu)NH(CH2)6NHCOCH2)Y[dW][Gly(piperidin-4-yl)]T)) was tested, and the Ki was 3.33 to 10 nM. `CC(C)[C@@H]1NC(=O)[C@H](CCCCN)NC(=O)[C@@H](Cc2c[nH]c3ccccc23)NC(=O)[C@H](Cc2ccc(O)cc2)NC(=O)[C@H](CCSCC(=O)NCCCCCCNC(=O)CN2CCN3CCN4CCN(CC2)CC(=O)[O][Lu]([O]C(=O)C3)[O]C(=O)C4)N(C)C(=O)[C@H](C2CC2)NC1=O` [RB-0005247] (cyclo([Gly(cPr)][NMehCys](DOTA(Lu)NH(CH2)6NHCOCH2)Y[dW]KV)) was tested, and the Ki was 3.33 to 10 nM. `CC(C)[C@@H]1NC(=O)[C@H](CCCCN)NC(=O)[C@@H](Cc2c[nH]c3ccccc23)NC(=O)[C@H](Cc2ccc(O)cc2)NC(=O)[C@H](CCSCC(=O)NCCCCCCNC(=O)CN2CCN3CCN4CCN(CC2)CC(=O)[O][Lu]([O]C(=O)C3)[O]C(=O)C4)N(C)C(=O)[C@H](CC(N)=O)NC1=O` [RB-0005253] (cyclo(KVN[NMehCys](DOTA(Lu)NH(CH2)6NHCOCH2)Y[dW])) was tested, and the Ki was 3.33 to 10 nM. `CC(C)[C@@H]1NC(=O)[C@H](CCCCN)NC(=O)[C@@H](Cc2c[nH]c3ccccc23)NC(=O)[C@H](Cc2ccc(O)cc2)NC(=O)[C@H](CCSCC(=O)NCCCCCCNC(=O)CN2CCN3CCN4CCN(CC2)CC(=O)[O][Lu]([O]C(=O)C3)[O]C(=O)C4)N(C)C(=O)[C@H](Cc2cnc[nH]2)NC1=O` [RB-0005255] (cyclo(H[NMehCys](DOTA(Lu)NH(CH2)6NHCOCH2)Y[dW]KV)) showed a Ki of 1 to 3.33 nM. With `CC(C)[C@@H]1NC(=O)[C@H](CCCCN)NC(=O)[C@@H](Cc2c[nH]c3ccccc23)NC(=O)[C@H](Cc2ccc(O)cc2)NC(=O)[C@H](CCSCC(=O)NCCCCCCNC(=O)CN2CCN3CCN4CCN(CC2)CC(=O)[O][Lu]([O]C(=O)C3)[O]C(=O)C4)N(C)C(=O)[C@H](C)NC1=O` [RB-0005266] (cyclo(A[NMehCys](DOTA(Lu)NH(CH2)6NHCOCH2)Y[dW]KV)) the Ki was under 1 nM. `CC(C)[C@@H]1NC(=O)[C@H](CCCCN)NC(=O)[C@@H](Cc2c[nH]c3ccccc23)NC(=O)[C@H](Cc2ccc(O)cc2)NC(=O)[C@H](CCSCC(=O)NCCCCCCNC(=O)CN2CCN3CCN4CCN(CC2)CC(=O)[O][Lu]([O]C(=O)C3)[O]C(=O)C4)N(C)C(=O)[C@H](CO)NC1=O` [RB-0005270] (cyclo(KVS[NMehCys](DOTA(Lu)NH(CH2)6NHCOCH2)Y[dW])) was tested, and the Ki was under 1 nM. `C[C@@H](O)[C@@H]1NC(=O)[C@H](CCCCN)NC(=O)[C@@H](Cc2c[nH]c3ccccc23)NC(=O)[C@H](Cc2ccc(O)cc2)NC(=O)[C@H](CCSCC(=O)NCCOCCOCCNC(=O)CN2CCN3CCN4CCN(CC2)CC(=O)[O][Lu]([O]C(=O)C3)[O]C(=O)C4)N(C)C(=O)[C@H](Cc2ccccc2)NC1=O` [RB-0005272] was tested, and the Ki was under 1 nM. For `C[C@@H](O)[C@@H]1NC(=O)[C@H](CCCCN)NC(=O)[C@@H](Cc2c[nH]c3ccccc23)NC(=O)[C@H](Cc2ccc(O)cc2)NC(=O)[C@H](CCSCC(=O)NCCCCCCNC(=O)CCC(C(=O)O)N2CCN3CCN4CCN(CC2)CC(=O)[O][Lu]([O]C(=O)C4)[O]C(=O)C3)N(C)C(=O)[C@H](Cc2ccccc2)NC1=O` (some centres unmarked) [RB-0005274], the Ki was under 1 nM. `C[C@@H](O)[C@@H]1NC(=O)[C@H](CCCCN)NC(=O)[C@@H](Cc2c[nH]c3ccccc23)NC(=O)[C@H](Cc2ccc(O)cc2)NC(=O)[C@H](CCSCC(=O)N[C@H](CCCCNC(=O)CN2CCN3CCN4CCN(CC2)CC(=O)[O][Lu]([O]C(=O)C3)[O]C(=O)C4)C(=O)O)N(C)C(=O)[C@H](Cc2ccccc2)NC1=O` [RB-0005276] gave a Ki of 1 to 3.33 nM. With `C[C@@H](O)[C@@H]1NC(=O)[C@H](CCCCN)NC(=O)[C@@H](Cc2c[nH]c3ccccc23)NC(=O)[C@H](Cc2ccc(O)cc2)NC(=O)[C@H](CCSCC(=O)NCCCC[C@@H](NC(=O)CN2CCN3CCN4CCN(CC2)CC(=O)[O][Lu]([O]C(=O)C3)[O]C(=O)C4)C(=O)O)N(C)C(=O)[C@H](Cc2ccccc2)NC1=O` [RB-0005278] the Ki was 1 to 3.33 nM. `C[C@@H](O)[C@@H]1NC(=O)[C@H](CCCCN)NC(=O)[C@@H](Cc2c[nH]c3ccccc23)NC(=O)[C@H](Cc2ccc(O)cc2)NC(=O)[C@H](CCSCC(=O)NCCOCCOCCOCCNC(=O)CN2CCN3CCN4CCN(CC2)CC(=O)[O][Lu]([O]C(=O)C3)[O]C(=O)C4)N(C)C(=O)[C@H](Cc2ccccc2)NC1=O` [RB-0005284] showed a Ki of under 1 nM. `C[C@@H](O)[C@@H]1NC(=O)[C@H](CCCCN)NC(=O)[C@@H](Cc2c[nH]c3ccccc23)NC(=O)[C@H](Cc2ccc(O)cc2)NC(=O)[C@H](CCSCC(=O)NCCOCCOCCOCCNC(=O)CN2CCN3CCN4CCN(CC2)CC(=O)[O][Lu]([O]C(=O)C3)[O]C(=O)C4)N(C)C(=O)CNC1=O` [RB-0005286] (cyclo(G[NMehCys](X6)Y[dW]KT)) showed a Ki of 10 to 33.3 nM. For `C[C@@H](O)[C@@H]1NC(=O)[C@H](CCCCN)NC(=O)[C@@H](Cc2c[nH]c3ccccc23)N(C)C(=O)[C@H](Cc2ccc(O)cc2)NC(=O)[C@H](CCSCC(=O)NCCCCCCNC(=O)CN2CCN3CCN4CCN(CC2)CC(=O)[O][Lu]([O]C(=O)C3)[O]C(=O)C4)N(C)C(=O)[C@H](Cc2ccccc2)NC1=O` [RB-0005330] (cyclo(F[NMehCys](DOTA(Lu)NH(CH2)6NHCOCH2)Y[dNMeW]KT)), the Ki was under 1 nM. With `C[C@@H](O)[C@@H]1NC(=O)[C@H](CCCCN)NC(=O)[C@@H](Cc2c[nH]c3ccccc23)NC(=O)CNC(=O)[C@H](CCSCC(=O)NCCCCCCNC(=O)CN2CCN3CCN4CCN(CC2)CC(=O)[O][Lu]([O]C(=O)C3)[O]C(=O)C4)N(C)C(=O)[C@H](Cc2ccccc2)NC1=O` [RB-0005694] (cyclo(F[NMehCys](DOTA(Lu)NH(CH2)6NHCOCH2)G[dW]KT)) the Ki was 1 to 3.33 nM.

Reference: US20250222146A1, “Radiopharmaceuticals Targeting Somatostatin Receptor 2 and Uses Thereof” (RayzeBio, Inc., priority 2023, published 2025)
